Data reported in patent publication EP4722201A1, “3-PHENYLISOXAZOLINE-5-CARBOXAMIDE COMPOUND, AND PREPARATION METHOD THEREFOR, HERBICIDAL COMPOSITION THEREOF AND USE THEREOF” (Jiangsu Flag Chemical Industry Co., Ltd, priority 2023, dated 2024).

Key:
Format in all cases: in vivo
Cyperus iria = assay: Indoor herbicide activity determination, post-emergence (stem and leaf spray at 2-4 leaf stage); conditions: 504 h, 60 g a.i./ha, determined 21 days later, read-out: Inhibition rate of fresh weight, Cyperus iria
Description: (§1) The testing method for herbicide activity of the compound of the present invention was as follows:
(§2) Post-emergence: an appropriate quantity of seeds of gramineous weeds (Echinochloa crusgalli, Eleusine indica, Digitaria sanguinalis, Alopecurus japonicus, Beckmannia syzigachne, Leptochloa chinensis, Polypogon fugax, Alopecurus aequalis, Lolium multiflorum, Poa annua, Aegilops tauschii, Avena fatua, Alopecurus myosuroides, Alopecurus japonicus and Alopecurus aequalis), broad-leaved weeds (Eclipta prostrata, Amaranthus retroflexus, Rorippa indica, Malachium aquaticum, Veronica polita, Conyza canadensis, Sesbania cannabina, Sagittariatrifolia and Schoenoplectiella juncoides), and Cyperus iria were sown in plastic pots having a diameter of 7 cm and holes at the bottom and filled with nutrient soil (sandy soil, pH 6.1, organic matter 1%) respectively, the seeds were covered with an appropriate amount of soil after being sown, then the soil was wetted with water from the bottom, the seeds were cultured in a constant-temperature illuminated culture room until a 2-4 leaf stage, and stems and leaves underwent spray treatment. After the treatment, the test materials were placed in a laboratory and cultured in the constant-temperature illuminated culture room after the liquid was naturally dry in the shade, and results were determined 21 days later. Inhibition rate of fresh weight % = (1−(fresh weight of treated plants)/(fresh weight of control plants)) × 100% [formula]

Digitaria sanguinalis = assay: as above; conditions: 504 h, 60 g a.i./ha, determined 21 days later, read-out: Inhibition rate of fresh weight, Digitaria sanguinalis
Description: as §1, §2

Eclipta prostrata = assay: as above; conditions: 504 h, 60 g a.i./ha, determined 21 days later, read-out: Inhibition rate of fresh weight, Eclipta prostrata
Description: as §1, §2

Alopecurus japonicus = assay: Indoor herbicide activity determination, Seed Treatment; pre-emergence (soil spray); conditions: Dosage 240 g a.i./ha
Outline: (§3)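 Sow seeds into soil-filled 7 cm pots (sandy, pH 6.1, 1% organic matter) and cover them. Water from beneath, then incubate 24 h in a lit, temperature-controlled chamber. Spray the soil in a traveling tower, let it dry in shade, grow on 21 days, and weigh fresh biomass against controls.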

Alopecurus myosuroides = assay: as above; conditions: Dosage 240 g a.i./ha
Outline: as §3

Eleusine indica = assay: as above; conditions: Dosage 240 g a.i./ha
Outline: as §3

Leptochloa chinensis = assay: as above; conditions: Dosage 240 g a.i./ha
Outline: as §3

Lolium multiflorum = assay: as above; conditions: Dosage 240 g a.i./ha
Outline: as §3

Row | SMILES | inhibition at 60 g/ha (Cyperus iria) [%] | inhibition at 60 g/ha (Digitaria sanguinalis) [%] | inhibition at 60 g/ha (Eclipta prostrata) [%] | Herbicidal activities, Alopecurus japonicus (inhibition rate class) (Alopecurus japonicus) | Herbicidal activities, Alopecurus myosuroides (inhibition rate class) (Alopecurus myosuroides) | Herbicidal activities, Eleusine indica (inhibition rate class) (Eleusine indica) | Herbicidal activities, Leptochloa chinensis (inhibition rate class) (Leptochloa chinensis) | Herbicidal activities, Lolium multiflorum (inhibition rate class) (Lolium multiflorum)
1 | CC1(C(=O)N[C@H]2C[C@@H](C(=O)O)C2)CC(c2cc(F)cc(Cl)c2)=NO1 (mixture of isomers) [I-132] | 80 to 100 | 80 to 100 | 60 to 80 | A (A indicates that the inhibition rate was greater than or equal to 80% to 100%) | A (A indicates that the inhibition rate was greater than or equal to 80% to 100%) | A (A indicates that the inhibition rate was greater than or equal to 80% to 100%) | A (A indicates that the inhibition rate was greater than or equal to 80% to 100%) | A (A indicates that the inhibition rate was greater than or equal to 80% to 100%)
2 | COC(=O)[C@H]1C[C@@H](NC(=O)C2(C)CC(c3cc(F)cc(Cl)c3)=NO2)C1 (mixture of isomers) [I-134] | 80 to 100 | 80 to 100 | 60 to 80 | A (A indicates that the inhibition rate was greater than or equal to 80% to 100%) | A (A indicates that the inhibition rate was greater than or equal to 80% to 100%) | A (A indicates that the inhibition rate was greater than or equal to 80% to 100%) | A (A indicates that the inhibition rate was greater than or equal to 80% to 100%) | A (A indicates that the inhibition rate was greater than or equal to 80% to 100%)
3 | CC1(C(=O)N[C@H]2C[C@@H](C(=O)O)C2)CC(c2cc(Cl)cc(Cl)c2)=NO1 (mixture of isomers) [I-137] | 80 to 100 | 80 to 100 | 40 to 60 | A (A indicates that the inhibition rate was greater than or equal to 80% to 100%) | A (A indicates that the inhibition rate was greater than or equal to 80% to 100%) | A (A indicates that the inhibition rate was greater than or equal to 80% to 100%) | A (A indicates that the inhibition rate was greater than or equal to 80% to 100%) | A (A indicates that the inhibition rate was greater than or equal to 80% to 100%)
4 | COC(=O)[C@H]1C[C@@H](NC(=O)C2(C)CC(c3cc(Cl)cc(Cl)c3)=NO2)C1 (mixture of isomers) [I-139] | 80 to 100 | 80 to 100 | 40 to 60 | A (A indicates that the inhibition rate was greater than or equal to 80% to 100%) | A (A indicates that the inhibition rate was greater than or equal to 80% to 100%) | A (A indicates that the inhibition rate was greater than or equal to 80% to 100%) | A (A indicates that the inhibition rate was greater than or equal to 80% to 100%) | A (A indicates that the inhibition rate was greater than or equal to 80% to 100%)
5 | CC1(C(=O)N[C@H]2C[C@@H](C(=O)O)C2)CC(c2cc(F)cc(OC(F)(F)F)c2)=NO1 (mixture of isomers) [I-157] | 60 to 80 | 80 to 100 | 60 to 80 | A (A indicates that the inhibition rate was greater than or equal to 80% to 100%) | A (A indicates that the inhibition rate was greater than or equal to 80% to 100%) | A (A indicates that the inhibition rate was greater than or equal to 80% to 100%) | A (A indicates that the inhibition rate was greater than or equal to 80% to 100%) | A (A indicates that the inhibition rate was greater than or equal to 80% to 100%)
